Values quoted from earlier work as cited in patent US10934405B2, “Synthetic polymer film whose surface has microbicidal activity, plastic product which includes synthetic polymer film, sterilization method with use of surface of synthetic polymer film, photocurable resin composition, and manufacturing method of synthetic polymer film” (Sharp Kabushiki Kaisha, priority 2018, dated 2021).

Conditions: for Water Solubility: YES/NO, TABLE 1A and 1B

Row | Water Solubility (symbol) (TABLE 6A and 6B) | Compound | Water Solubility
1 | – | C=COCCOCCOC(=O)C=C [VEEA, 2-(2-vinyloxyethoxy)ethyl acrylate] | YES
2 | ◯ | Nc1nc2ncc(CNc3ccc(C(=O)N[C@@H](CCC(=O)O)C(=O)O)cc3)nc2c(=O)[nH]1 [folic acid] | –
3 | – | polyethylene glycol (200) diacrylate [Example M282] | YES
4 | – | polyethylene glycol (400) diacrylate [Example M280] | YES
